Measurements taken from doi:10.1101/2022.03.11.483894v1, “Structure and function of diadenylate cyclase DacM from Mycoplasma ovipneumoniae” (biorxiv, 2022).

Target: T1, DacM (Δ2-33DacM; DacM (35-203)) (Mesomycoplasma ovipneumoniae, UniProt A0A014M399)
T1 construct: gene MOVI_0530; N-terminal transmembrane helix removed (Δ2-33); codon-optimized gene in pET28b, E. coli BL21(DE3), N-terminal His6 fusion; homodimer in crystal
T1 sequence (A0A014M399 35-203): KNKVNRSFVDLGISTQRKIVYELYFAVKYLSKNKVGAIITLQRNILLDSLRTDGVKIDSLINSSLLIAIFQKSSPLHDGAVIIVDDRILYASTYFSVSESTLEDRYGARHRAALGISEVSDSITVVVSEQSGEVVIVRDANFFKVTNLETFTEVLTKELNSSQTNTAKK
Experiment: X-ray crystal structure of complex, […] Å; also LC-MS detection of c-di-AMP formation
Format: binding
Settings: activity assay: 2 μM enzyme, 10 mM MgCl2, Tris-HCl pH 7.5, 37 °C, 1 h

SMILES | X-ray crystal structure of complex, 1.9 Å; also LC-MS detection of c-di-AMP form (crystal grown with ATP as additive, 16 °C, HEPES pH 7.5, active site of protomer B, 0.1 mM ADP) | X-ray crystal structure of complex, 1.9 Å; also LC-MS detection of c-di-AMP form (crystal: 16 °C, HEPES pH 7.5, active site of protomer A, 0.1 mM ATP)
Nc1ncnc2c1ncn2[C@@H]1O[C@H](COP(=O)(O)OP(=O)(O)O)[C@@H](O)[C@H]1O [ADP] | active site of the second DacM protomer (protomer B), was consistent with a bound molecule of ADP | –
Nc1ncnc2c1ncn2[C@@H]1O[C@H](COP(=O)(O)OP(=O)(O)OP(=O)(O)O)[C@@H](O)[C@H]1O [ATP] | – | an ATP molecule, which was clearly bound in the active site of one DacM protomer
